Measured values taken from patent US20240381871A1, “5-HALOALKOXY-PYRIMIDINE COMPOUNDS AS HERBICIDES” (SYNGENTA CROP PROTECTION AG, priority 2020, published 2024).

Tests used:
Assay type in all cases: in vivo
[1] = system: Ipomea hederacea (IPOHE); experiment: Comparative post-emergence test, weed control; conditions: Ipomoea hederacea, 336 h, after 14 days, read-out: IPOHE damage (100=total damage to plant; 0=no damage)
Experimental: (§1) Seeds of test species were sown in standard soil in pots. After cultivation for 10 days (post-emergence) under controlled conditions in a glasshouse (at 24/16° C., day/night; 14 hours light; 65% humidity), the plants were sprayed with an aqueous spray solution derived from the formulation of the technical active ingredient in 0.6 ml acetone and 45 ml formulation solution containing 10.6% Emulsogen EL (Registry number 61791-12-6), 42.2% N-methyl pyrrolidone, 42.2% dipropylene glycol monomethyl ether (CAS RN 34590-94-8) and 0.2% X-77 (CAS RN 11097-66-8). The test plants were then grown in a glasshouse under controlled conditions in a glasshouse (at 24/16° C., day/night; 14 hours light; 65% humidity) and watered twice daily. After 14 days, the test was evaluated (100=total damage to plant; 0=no damage to plant). • Weeds: Ipomea hederacea (IPOHE) • Crops: Zea mays (ZEAMX)

[2] = system: Setaria faberi (SETFA); experiment: Pre-emergence herbicidal glasshouse test; conditions: rate 250, evaluated after 13 days, the values are: phytotoxicity score (1-5)
Experimental: (§2) Seeds of a variety of test species are sown in standard soil in pots, Amaranthus retoflexus (AMARE), Abutilon theophrasti (ABUTH), Setaria faberi (SETFA), Echinochloa crus-galli (ECHCG) and Ipomoea hederacea (IPOHE). After cultivation for one day (pre-emergence) or after 8 days cultivation (post-emergence) under controlled conditions in a glasshouse (at 24/16° C., day/night; 14 hours light; 65% humidity), the plants are sprayed with an aqueous spray solution derived from the formulation of the technical active ingredient in acetone/water (50:50) solution containing 0.5% Tween 20 (polyoxyethelyene sorbitan monolaurate, CAS RN 9005-64-5). Compounds are applied at 1000 g/ha unless otherwise stated. The test plants are then grown in a glasshouse under controlled conditions in a glasshouse (at 24/16° C., day/night; 14 hours light; 65% humidity) and watered twice daily. After 13 days for pre and post-emergence, the test is evaluated for the percentage damage caused to the plant.

[3] = system: Ipomoea hederacea (IPOHE); experiment: Pre-emergence herbicidal glasshouse test; conditions: rate 250, evaluated after 13 days, the values are:
Experimental: as §2

[4] = system: Echinochloa crus-galli (ECHCG); experiment: Pre-emergence herbicidal glasshouse test; conditions: rate 250, evaluated after 13 days, the values are: phytotoxicity score (1-5)
Experimental: as §2

[5] = system: Abutilon theophrasti (ABUTH); experiment: Pre-emergence herbicidal glasshouse test; conditions: rate 250, evaluated after 13 days, the values are:
Experimental: as §2

[6] = system: Amaranthus retoflexus (AMARE); experiment: Pre-emergence herbicidal glasshouse test; conditions: rate 250, evaluated after 13 days, the values are:
Experimental: as §2

[7] = system: Zea mays (ZEAMX); experiment: Comparative post-emergence test, crop damage; conditions: 336 h, after 14 days, read-out: ZEAMX damage (100=total damage to plant; 0=no damage)
Experimental: as §1

[8] = system: Setaria faberi (SETFA); experiment: Post-emergence herbicidal glasshouse test; conditions: rate 250, evaluated after 13 days, the values are:
Experimental: as §2

[9] = system: Ipomoea hederacea (IPOHE); experiment: Post-emergence herbicidal glasshouse test; conditions: rate 250, evaluated after 13 days, the values are: phytotoxicity score (1-5 scale)
Experimental: as §2

[10] = system: Echinochloa crus-galli (ECHCG); experiment: Post-emergence herbicidal glasshouse test; conditions: rate 250, evaluated after 13 days, the values are: phytotoxicity score (1-5 scale)
Experimental: as §2

[11] = system: Abutilon theophrasti (ABUTH); experiment: Post-emergence herbicidal glasshouse test; conditions: rate 250, evaluated after 13 days, the values are:
Experimental: as §2

[12] = system: Amaranthus retoflexus (AMARE); experiment: Post-emergence herbicidal glasshouse test; conditions: rate 250, evaluated after 13 days, the values are: phytotoxicity score (1-5 scale)
Experimental: as §2

SMILES | pest or weed control at 2 g/ha [1] [%] | pest or weed control at 8 g/ha [1] [%] | pest or weed control at 60 g/ha [1] [%] | pest or weed control at 125 g/ha [1] [%] | pest or weed control at 250 g/ha [1] [%] | pest or weed control at 500 g/ha [1] [%] | Pre-emergence activity SETFA (% phytotoxicity) [2] | Pre-emergence activity IPOHE (% phytotoxicity) [3] | Pre-emergence activity ECHCG (% phytotoxicity) [4] | Pre-emergence activity ABUTH (% phytotoxicity) [5] | Pre-emergence activity AMARE (% phytotoxicity) [6] | plant injury at 60 g/ha [7] [%] | plant injury at 125 g/ha [7] [%] | plant injury at 250 g/ha [7] [%] | plant injury at 500 g/ha [7] [%] | Post-emergence activity SETFA (% phytotoxicity) [8] | Post-emergence activity IPOHE (% phytotoxicity) [9] | Post-emergence activity ECHCG (% phytotoxicity) [10] | Post-emergence activity ABUTH (% phytotoxicity) [11] | Post-emergence activity AMARE (% phytotoxicity) [12] | further results
FC(F)Oc1cnc(Oc2ccccc2-c2cc(C(F)F)no2)nc1 [Compound 1.003] | 10 | 20 | 30 | 70 | 70 | 90 | 4 | 3 | 2 | 4 | 5 | 0 | 0 | 0 | 10 | 3 | 4 | 3 | 4 | 4 | plant injury at 2 g/ha [7]: 0%; plant injury at 8 g/ha [7]: 0%
FC(F)Oc1cnc(Oc2cccc(Cl)c2-c2cc(C(F)F)no2)nc1 [Compound 1.004] | 20 | 50 | 70 | 70 | 90 | 90 | 5 | 5 | 4 | 4 | 5 | 0 | 10 | 20 | 40 | 4 | 4 | 4 | 4 | 4 | plant injury at 2 g/ha [7]: 0%; plant injury at 8 g/ha [7]: 0%
FC(F)Oc1cnc(Oc2cccc(Br)c2-c2cc(C(F)F)no2)nc1 [Compound 1.005] | 30 | 20 | 40 | 70 | 90 | 80 | 5 | 4 | 3 | 3 | 5 | 10 | 20 | 30 | 30 | 4 | 5 | 3 | 4 | 4 | –
